Data reported in ChEMBL document CHEMBL1129582, “Lipophilic, acid-stable, adenosine deaminase-activated anti-HIV prodrugs for central nervous system delivery. 3. 6-Amino prodrugs of 2'-beta-fluoro-2',3'-dideoxyinosine” (J Med Chem, 1996).

Experiments:
[1] = Anti-HIV activity by using phytohemagglutininin-stimulated peripheral blood mononuclear cell(PHA/PBM) test system; format: functional; conditions: Homo sapiens
[2] = Partition coefficient (logP); format: physicochemical; conditions: octanol/water

Compound | IC50 [1] [µM] | logP [2]
CNc1ncnc2c1ncn2C1OC(CO)CC1F (centres undefined) | 13.1 | –
NNc1ncnc2c1ncn2C1OC(CO)CC1F (centres undefined) | 36.3 | –
OCC1CC(F)C(n2cnc3c(NOCc4ccccc4)ncnc32)O1 (centres undefined) | > 80 | 1.25
CN(C)c1ncnc2c1ncn2C1OC(CO)CC1F (centres undefined) | 18 | 0.797
CCNc1ncnc2c1ncn2C1OC(CO)CC1F (centres undefined) | 11.1 | 0.779
O=[N+]([O-])c1ncnc2c1ncn2C1OC(CO)CC1F (centres undefined) | 9.6 | -0.395
OCC1CC(F)C(n2cnc3c(NO)ncnc32)O1 (centres undefined) | 6.8 | -0.983
CONc1ncnc2c1ncn2C1OC(CO)CC1F (centres undefined) | > 80 | -0.414
OCC1CC(F)C(n2cnc3c(F)ncnc32)O1 (centres undefined) | > 5 | –

More lines, in order of falling IC50 [1], values ahead:

IC50 [1] [µM] | logP [2] | Compound
6.3 | – | OCC1CC(F)C(n2cnc3c(O)ncnc32)O1 (centres undefined)
5.9 | – | OCC1CC(F)C(n2cnc3c(Cl)ncnc32)O1 (centres undefined)
3.3 | – | Nc1ncnc2c1ncn2[C@@H]1O[C@H](CO)C[C@@H]1F [LODENOSINE]
0.3 | – | O=c1[nH]cnc2c1ncn2[C@H]1CC[C@@H](CO)O1 [DIDANOSINE]
